Assay results reported in US8765447B2, “Fungal strain Beauveria sp. MTCC 5184 and a process for the preparation of enzymes therefrom” (Council of Scientific and Industrial Research, priority 2010, dated 2014).

Tests used:
Assay type in all cases: biochemical
[1] = system: purified protease of Beauveria sp MTCC 5184; assay: Stability of purified protease in organic solvents at 50° C.; settings: 25% (v/v) solvent
Excerpt: Following organic solvents were used: acetone, 1-butanol, benzene, chloroform, dimethylsulphoxide, ethanol, hexane, isopropanol and methanol. […] Samples were removed at different time intervals and residual activity was estimated.

[2] = system: protease of Beauveria sp MTCC 5184; assay: Effect of metal ions on protease activity; settings: for Residual Activity (%): 28° C., 30 min; for inhibition: 1 mM
Protocol: The protease activity has been expressed in terms of tyrosine equivalents. The reaction mixture contained an aliquot of suitably diluted enzyme solution and 10 mg Hammerstein casein in 0.1 M sodium carbonate buffer pH 9.0 in a total volume of 2 ml. After incubation at 50° C. for 10 min, the reaction was terminated by the addition of 3 ml of 5% trichloroacetic acid (acidified with concentrated hydrochloric acid). The precipitate formed was filtered through Whatman No. 1 filter paper after standing for 30 min at room temperature. The absorbance of trichloroacetic acid soluble fraction was measured at 280 nm. Micrograms of tyrosine produced was calculated from a pre-calibrated graph of absorbance at 280 nm against tyrosine concentration and the units are expressed as […] of tyrosine released per minute under assay conditions.
This example illustrates the effect of metal ions on protease activity of Beauveria sp MTCC 5184.

[3] = system: protease of Beauveria sp MTCC 5184; assay: Modification of tryptophan of protease with NBS; settings: 28° C., 30 min
Protocol: This example illustrates the modification of tryptophan with N-bromosuccinimide (NBS) and its effect on protease activity. […] Protease incubated without NBS served as the control.

[4] = system: protease of Beauveria sp MTCC 5184; assay: Substrate protection by casein against inhibition by PMSF, NBS and WRK
Excerpt: The example illustrates the study of substrate protection by casein on inhibition of Beauveria sp MTCC 5184 protease by PMSF, WRK and NBS. […] Increase in casein concentration decreased the inhibition by both the inhibitors indicating substrate protection by casein (Table 11). This indicates the presence of serine, aspartic acid and tryptophan at the active site of protease.

[5] = system: protease of Beauveria sp MTCC 5184; assay: Modification of serine residue of protease by PMSF; settings: 28° C., 30 min
Protocol: This example illustrates the modification of serine residue of protease by PMSF and its effect on protease activity. […] Protease incubated without PMSF served as the control.

[6] = system: protease of Beauveria sp MTCC 5184; assay: Modification of aspartic acid residue of protease by WRK; settings: 28° C., 30 min
Protocol: This example illustrates the modification of aspartic acid residue of protease by Woodward's reagent (WRK) and its effect on protease activity. […] Protease incubated without WRK served as the control.

ClC(Cl)Cl [Chloroform, chloroform]
Residual Activity (%) ([1]; 0 h, pH 7): 100.00% | Residual Activity (%) ([1]; 1 h, pH 7): 77.14% | Residual Activity (%) ([1]; 2 h, pH 7): 38.55%

CC(C)O [Isopropanol, isopropanol]
Residual Activity (%) ([1]; 0 h, pH 7): 100.00% | Residual Activity (%) ([1]; 1 h, pH 7): 71.26% | Residual Activity (%) ([1]; 2 h, pH 7): 46.16%

CCO [Ethanol, ethanol]
Residual Activity (%) ([1]; 0 h, pH 7): 100.00% | Residual Activity (%) ([1]; 1 h, pH 7): 98.50% | Residual Activity (%) ([1]; 2 h, pH 7): 45.21%

1-butanol
Residual Activity (%) ([1]; 0 h, pH 7): 100.00% | Residual Activity (%) ([1]; 1 h, pH 7): 82.07% | Residual Activity (%) ([1]; 2 h, pH 7): 46.38%

[Cl-].[Na+] [Na^+1]
Residual Activity (%) ([2]; 1 mM chloride salt): 100.94% | Residual Activity (%) ([2]; 10 mM chloride salt): 99.01%

O=C1CCC(=O)N1Br [NBS, N-bromosuccinimide]
concentration at which complete inhibition was observed ([3]; 10 μM purified protease): 0.06 mM | Residual Activity (%) ([3]; NBS 0.01 mM): 20.39% | Residual Activity (%) ([3]; NBS 0.02 mM): 15.70% | Residual Activity (%) ([3]; NBS 0.03 mM): 12.55% | Residual Activity (%) ([3]; NBS 0.04 mM): 8.93% | Residual Activity (%) ([3]; NBS 0.05 mM): 7.08% | Residual Activity (%) ([3]; NBS 0.06 mM): 0% | Residual Activity (%) ([3]; NBS 0.07 mM): 0% | Residual Activity (%) ([3]; NBS 0.08 mM): 0% | Residual Activity (%) ([3]; NBS 0.09 mM): 0% | Residual Activity (%) ([3]; NBS 0.10 mM): 0% | Inhibition (%) ([4]; 0.01 mM NBS, casein 0 mg): 87.06% | Inhibition (%) ([4]; 0.01 mM NBS, casein 1 mg): 84.85% | Inhibition (%) ([4]; 0.01 mM NBS, casein 2 mg): 69.95% | Inhibition (%) ([4]; 0.01 mM NBS, casein 3 mg): 64.09% | Inhibition (%) ([4]; 0.01 mM NBS, casein 4 mg): 48.93% | Inhibition (%) ([4]; 0.01 mM NBS, casein 5 mg): 43.25% | Inhibition (%) ([4]; 0.01 mM NBS, casein 6 mg): 38.03% | Inhibition (%) ([4]; 0.01 mM NBS, casein 7 mg): 34.06% | Inhibition (%) ([4]; 0.01 mM NBS, casein 8 mg): 24.25% | Inhibition (%) ([4]; 0.01 mM NBS, casein 9 mg): 16.27% | Inhibition (%) ([4]; 0.01 mM NBS, casein 10 mg): 16.28%

O=S(=O)(F)Cc1ccccc1 [PMSF, phenylmethylsulfonyl fluoride]
Inhibition (%) ([4]; 0.01 mM PMSF, casein 0 mg): 95.02% | Inhibition (%) ([4]; 0.01 mM PMSF, casein 1 mg): 74.91% | Inhibition (%) ([4]; 0.01 mM PMSF, casein 2 mg): 70.78% | Inhibition (%) ([4]; 0.01 mM PMSF, casein 3 mg): 64.06% | Inhibition (%) ([4]; 0.01 mM PMSF, casein 4 mg): 60.71% | Inhibition (%) ([4]; 0.01 mM PMSF, casein 5 mg): 52.65% | Inhibition (%) ([4]; 0.01 mM PMSF, casein 6 mg): 45.22% | Inhibition (%) ([4]; 0.01 mM PMSF, casein 7 mg): 41.73% | Inhibition (%) ([4]; 0.01 mM PMSF, casein 8 mg): 34.80% | Inhibition (%) ([4]; 0.01 mM PMSF, casein 9 mg): 31.56% | Inhibition (%) ([4]; 0.01 mM PMSF, casein 10 mg): 26.26% | concentration at which complete inhibition was observed ([5]; 10 μM purified protease): 0.025 mM | Residual Activity (%) ([5]; PMSF 0.005 mM): 45.65% | Residual Activity (%) ([5]; PMSF 0.010 mM): 8.78% | Residual Activity (%) ([5]; PMSF 0.015 mM): 3.76% | Residual Activity (%) ([5]; PMSF 0.020 mM): 1.74% | Residual Activity (%) ([5]; PMSF 0.025 mM): 0% | Residual Activity (%) ([5]; PMSF 0.030 mM): 0% | Residual Activity (%) ([5]; PMSF 0.035 mM): 0% | Residual Activity (%) ([5]; PMSF 0.040 mM): 0% | Residual Activity (%) ([5]; PMSF 0.045 mM): 0% | Residual Activity (%) ([5]; PMSF 0.050 mM): 0%

[Cl-].[Cl-].[Co+2] [Co^+2]
inhibitory effect on the protease ([2]; 1 mM and 10 mM): no inhibitory effect | Residual Activity (%) ([2]; 1 mM chloride salt): 103.86% | Residual Activity (%) ([2]; 10 mM chloride salt): 112.36%

[Cd+2] [Cd^+2]
inhibition [2]: 3% | Residual Activity (%) ([2]; 1 mM chloride salt): 96.99% | Residual Activity (%) ([2]; 10 mM chloride salt): 63.50%

[Cl][Cu][Cl] [Cu^+2]
inhibitory effect on the protease ([2]; 1 mM and 10 mM): no inhibitory effect | Residual Activity (%) ([2]; 1 mM chloride salt): 109.42% | Residual Activity (%) ([2]; 10 mM chloride salt): 100.02%

[Cl-].[K+] [K^+1]
Residual Activity (%) ([2]; 1 mM chloride salt): 91.71% | Residual Activity (%) ([2]; 10 mM chloride salt): 87.63%

[Cl][Mn][Cl] [Mn^+2]
Residual Activity (%) ([2]; 1 mM chloride salt): 101.51% | Residual Activity (%) ([2]; 10 mM chloride salt): 73.98%

CC[n+]1ccc(-c2cccc(S(=O)(=O)[O-])c2)o1 [WRK, Woodward's reagent]
Inhibition (%) ([4]; 5 mM WRK, casein 0 mg): 75.26% | Inhibition (%) ([4]; 5 mM WRK, casein 1 mg): 66.03% | Inhibition (%) ([4]; 5 mM WRK, casein 2 mg): 59.32% | Inhibition (%) ([4]; 5 mM WRK, casein 3 mg): 53.22% | Inhibition (%) ([4]; 5 mM WRK, casein 4 mg): 45.06% | Inhibition (%) ([4]; 5 mM WRK, casein 5 mg): 40.25% | Inhibition (%) ([4]; 5 mM WRK, casein 6 mg): 31.10% | Inhibition (%) ([4]; 5 mM WRK, casein 7 mg): 26.27% | Inhibition (%) ([4]; 5 mM WRK, casein 8 mg): 19.32% | Inhibition (%) ([4]; 5 mM WRK, casein 9 mg): 12.87% | Inhibition (%) ([4]; 5 mM WRK, casein 10 mg): 8.72% | concentration at which complete inhibition was observed ([6]; 10 μM purified protease): 9 mM | Residual Activity (%) ([6]; WRK 1 mM): 86.08% | Residual Activity (%) ([6]; WRK 2 mM): 75.76% | Residual Activity (%) ([6]; WRK 3 mM): 61.47% | Residual Activity (%) ([6]; WRK 4 mM): 49.05% | Residual Activity (%) ([6]; WRK 5 mM): 34.66% | Residual Activity (%) ([6]; WRK 6 mM): 19.53% | Residual Activity (%) ([6]; WRK 7 mM): 11.69% | Residual Activity (%) ([6]; WRK 8 mM): 6.39% | Residual Activity (%) ([6]; WRK 9 mM): 0% | Residual Activity (%) ([6]; WRK 10 mM): 0%

c1ccccc1 [Benzene, benzene]
Residual Activity (%) ([1]; 0 h, pH 7): 100.00% | Residual Activity (%) ([1]; 1 h, pH 7): 61.85% | Residual Activity (%) ([1]; 2 h, pH 7): 40.66%

[Cl][Fe]([Cl])[Cl] [Fe^+3]
Residual Activity (%) ([2]; 1 mM chloride salt): 81.67% | Residual Activity (%) ([2]; 10 mM chloride salt): 82.66%

[Ca+2].[Cl-].[Cl-] [Ca^+2]
activation of protease activity ([2]; 1 mM and 10 mM): no activation | Residual Activity (%) ([2]; 1 mM chloride salt): 92.99% | Residual Activity (%) ([2]; 10 mM chloride salt): 81.75%

CC(C)=O [Acetone, acetone]
Residual Activity (%) ([1]; 0 h, pH 7): 100.00% | Residual Activity (%) ([1]; 1 h, pH 7): 99.07% | Residual Activity (%) ([1]; 2 h, pH 7): 70.45% | Residual Activity (%) ([1]; 2 h, pH 7, listed as acetone): around 70%

[Hg+2] [Hg^+2]
inhibition [2]: 10% | Residual Activity (%) ([2]; 1 mM chloride salt): 90.38% | Residual Activity (%) ([2]; 10 mM chloride salt): 63.16%

CCCCCC [Hexane, hexane]
Residual Activity (%) ([1]; 0 h, pH 7): 100.00% | Residual Activity (%) ([1]; 1 h, pH 7): 76.18% | Residual Activity (%) ([1]; 2 h, pH 7): 29.43%
